# According to US12208088B2 (Genentech, Inc., priority 2018, dated 2025):
# Target: HPK1 (Homo sapiens (Human), UniProt Q92918)
# Test: HPK1 Lantha binding assay ("Lanth")
# Settings: binding assays; Morrison Ki fit
# In short: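 TR-FRET binding competition using 2 nM HPK1, 2 nM Eu-anti-GST antibody and 15 nM Tracer222 at 23 °C. Compound was incubated 1 h with enzyme and antibody, then 1 h after tracer addition, with an 11-point 5-fold dilution series. Ki obtained from a Morrison fit that corrects for tracer concentration and Kd.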
# Chain of HPK1 (Q92918 1-346 limits assumed): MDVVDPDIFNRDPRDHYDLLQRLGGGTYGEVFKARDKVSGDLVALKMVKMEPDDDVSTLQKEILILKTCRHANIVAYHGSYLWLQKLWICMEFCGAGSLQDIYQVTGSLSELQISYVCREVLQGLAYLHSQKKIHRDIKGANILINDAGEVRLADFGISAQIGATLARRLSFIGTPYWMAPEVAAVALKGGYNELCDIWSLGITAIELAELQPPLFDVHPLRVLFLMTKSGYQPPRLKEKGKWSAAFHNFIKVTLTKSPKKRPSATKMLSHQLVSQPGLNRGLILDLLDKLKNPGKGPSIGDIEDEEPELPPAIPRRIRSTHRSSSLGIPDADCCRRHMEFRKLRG
row,SMILES,Ki [µM]
1,"C[C@H]1Nc2ncc(-c3ccc(N)c(C(=O)N(C)C)c3F)cc2C12CC2 (single isomer, unassigned) [Compound 128a]",0.0466
2,"C[C@@H]1Nc2ncc(-c3ccc(N)c(C(=O)N(C)C)c3F)cc2C12CC2 (single isomer, unassigned) [Compound 128b]",0.0422
3,"Cn1cc([C@H]2CCCN2C(=O)c2cccc(-c3cnc4c(c3)C3(CC3)CN4)c2F)cn1 (single isomer, unassigned) [Compound 174a]",0.0742
4,"Cn1cc([C@@H]2CCCN2C(=O)c2cccc(-c3cnc4c(c3)C3(CC3)CN4)c2F)cn1 (single isomer, unassigned) [Compound 174b]",0.582
5,"Cn1cc([C@H]2CCCCN2C(=O)c2cccc(-c3cnc4c(c3)C3(CC3)CN4)c2F)cn1 (single isomer, unassigned) [Compound 175a]",0.0042
6,"Cn1cc([C@@H]2CCCCN2C(=O)c2cccc(-c3cnc4c(c3)C3(CC3)CN4)c2F)cn1 (single isomer, unassigned) [Compound 175b]",0.945
7,"Cn1cccc(-c2cccc(-c3cnc4c(c3Cl)[C@]3(CC[C@](C)(C(N)=O)C3)CN4)c2)c1=O (single isomer, unassigned) [Compound 179a]",0.194
8,"Cn1cccc(-c2cccc(-c3cnc4c(c3Cl)[C@@]3(CC[C@@](C)(C(N)=O)C3)CN4)c2)c1=O (single isomer, unassigned) [Compound 179b]",0.00091
9,"CC1(C#N)CCCN1C(=O)c1cccc(-c2cnc3c(c2)C2(CC2)CN3)c1F (single isomer, unassigned) [Compound 191a]",0.0347
10,"CN(C)C(=O)c1cccc(-c2cnc3c(c2Cl)[C@]2(CC[C@](C)(C(N)=O)C2)CN3)c1F (single isomer, unassigned) [Compound 195b]",0.00623
11,"CN(C)C(=O)c1cccc(-c2cnc3c(c2)[C@]2(CC[C@](C)(C(N)=O)C2)CN3)c1F (single isomer, unassigned) [Compound 199a]",0.941
12,"CN(C)C(=O)c1cccc(-c2cnc3c(c2)[C@@]2(CC[C@@](C)(C(N)=O)C2)CN3)c1F (single isomer, unassigned) [Compound 199b]",0.105
13,"C[C@]1(C(N)=O)CC[C@@]2(CNc3ncc(-c4cccc(N5CCOCC5=O)c4F)c(Cl)c32)C1 (single isomer, unassigned) [Compound 202b]",0.0219
14,"CCC[C@H]1C[C@@]12CNc1ncc(-c3ccc(N)c(C(=O)N(C)C)c3F)cc12 (single isomer, unassigned) [Compound 217a]",0.0094
15,"CCC[C@@H]1C[C@]12CNc1ncc(-c3ccc(N)c(C(=O)N(C)C)c3F)cc12 (single isomer, unassigned) [Compound 217b]",0.00905
16,"CCC[C@@H]1C[C@@]12CNc1ncc(-c3ccc(N)c(C(=O)N(C)C)c3F)cc12 (single isomer, unassigned) [Compound 217c]",0.0679
17,"CCC[C@H]1C[C@]12CNc1ncc(-c3ccc(N)c(C(=O)N(C)C)c3F)cc12 (single isomer, unassigned) [Compound 217d]",0.0234
18,"C[C@H](c1cnn(C)c1)N(C)C(=O)c1cccc(-c2cnc3c(c2)C2(CC2)CN3)c1F (single isomer, unassigned) [Compound 229a]",0.011
19,"C[C@@H](c1cnn(C)c1)N(C)C(=O)c1cccc(-c2cnc3c(c2)C2(CC2)CN3)c1F (single isomer, unassigned) [Compound 229b]",0.013

# Now from value to compound:
row,Ki [µM],SMILES
1,0.0635,"CN(C)C(=O)c1c(N)ccc(-c2cnc3c(c2Cl)[C@]2(CC[C@H](C(N)=O)C2)CN3)c1F (single isomer, unassigned) [Compound 100a]"
2,0.00174,"CN(C)C(=O)c1c(N)ccc(-c2cnc3c(c2Cl)[C@@]2(CC[C@@H](C(N)=O)C2)CN3)c1F (single isomer, unassigned) [Compound 100b]"
3,0.00985,"CN(C)C(=O)c1c(N)ccc(-c2cnc3c(c2Cl)[C@]2(CC[C@H](C(=O)O)C2)CN3)c1F (single isomer, unassigned) [Compound 105a]"
4,0.0501,"CN(C)C(=O)c1c(N)ccc(-c2cnc3c(c2Cl)[C@]2(CC[C@H](C(=O)N(C)C)C2)CN3)c1F (single isomer, unassigned) [Compound 107a]"
5,0.14,"CN(C)C(=O)c1c(N)ccc(-c2cnc3c(c2Cl)[C@]2(CC[C@](O)(Cn4cncn4)C2)CN3)c1F (single isomer, unassigned) [Compound 116c]"
6,0.00849,"CN(C)C(=O)c1c(N)ccc(-c2cnc3c(c2Cl)[C@]2(CC[C@H](n4ncnc4N)C2)CN3)c1F (single isomer, unassigned) [Compound 118a]"
7,0.0376,"CN(C)C(=O)c1c(N)ccc(-c2cnc3c(c2Cl)[C@@]2(CCC(=O)NC2)CN3)c1F (single isomer, unassigned) [Compound 123a]"
8,0.771,"CN(C)C(=O)c1c(N)ccc(-c2cnc3c(c2Cl)[C@]2(CCC(=O)NC2)CN3)c1F (single isomer, unassigned) [Compound 123b]"
9,0.00393,"CN(C)C(=O)c1c(N)ccc(-c2cnc3c(c2Cl)[C@]2(CC[C@](C)(C#N)C2)CN3)c1F (single isomer, unassigned) [Compound 131a]"
10,0.00295,"CN(C)C(=O)c1c(N)ccc(-c2cnc3c(c2Cl)[C@]2(CC[C@@H](CC(N)=O)C2)CN3)c1F (single isomer, unassigned) [Compound 135c]"
11,0.157,"CN(C)C(=O)c1c(N)ccc(-c2cnc3c(c2Cl)[C@]2(CC[C@H](N4CCCC4=O)C2)CN3)c1F (single isomer, unassigned) [Compound 143a]"
12,0.0746,"CN(C)C(=O)c1c(N)ccc(-c2cnc3c(c2Cl)[C@@]2(CN3)C[C@H](O)[C@@H](n3ccnn3)C2)c1F (single isomer, unassigned) [Compound 146c]"
13,0.0848,"CN(C)C(=O)c1c(N)ccc(-c2cnc3c(c2Cl)[C@@]2(CC[C@@](C)(C(N)=O)C2)CN3)c1F (single isomer, unassigned) [Compound 155b]"
14,0.103,"Cc1cc(C#N)nn1[C@H]1CC[C@@]2(CNc3ncc(-c4ccc(N)c(C(=O)N(C)C)c4F)c(Cl)c32)C1 (single isomer, unassigned) [Compound 162a]"
15,0.0263,"CN(C)C(=O)c1c(N)ccc(-c2cnc3c(c2Cl)[C@]2(CC[C@H](n4ccc(C(F)(F)F)n4)C2)CN3)c1F (single isomer, unassigned) [Compound 168a]"
16,0.00364,"CC(C)[C@H]1C[C@@]12CNc1ncc(-c3ccc(N)c(C(=O)N(C)C)c3F)c(Cl)c12 (single isomer, unassigned) [Compound 193a]"
17,0.00141,"CC(C)[C@@H]1C[C@]12CNc1ncc(-c3ccc(N)c(C(=O)N(C)C)c3F)c(Cl)c12 (single isomer, unassigned) [Compound 193b]"
18,0.00513,"CCC[C@H]1C[C@@]12CNc1ncc(-c3ccc(N)c(C(=O)N(C)C)c3F)c(Cl)c12 (single isomer, unassigned) [Compound 197a]"
19,0.00364,"CCC[C@@H]1C[C@]12CNc1ncc(-c3ccc(N)c(C(=O)N(C)C)c3F)c(Cl)c12 (single isomer, unassigned) [Compound 197b]"
20,0.00476,"C[C@H]1C[C@@]12CNc1ncc(-c3ccc(N)c(C(=O)N(C)C)c3F)c(Cl)c12 (single isomer, unassigned) [Compound 228a]"
21,0.00173,"C[C@@H]1C[C@]12CNc1ncc(-c3ccc(N)c(C(=O)N(C)C)c3F)c(Cl)c12 (single isomer, unassigned) [Compound 228b]"
